Patent publication US20110190165A1, “HIGH THROUGHPUT METHODS OF IDENTIFYING NEUTRAL LIPID SYNTHASES” (priority 2008, published 2011)

What was measured:
[1] = tested on: quadruple knock-out strain cultures harboring vector with either DGAT1 or LacZ gene; test: Growth of quadruple knock-out yeast expressing DGAT1 or LacZ on solid medium supplemented with fatty acids; type: cell-based, Saccharomyces cerevisiae; conditions: for suitability for selection: 0.5 mM (500 μM) fatty acid; for growth of DGAT1 and LacZ cultures: 1 mM fatty acid; for selectivity of the media at lowered concentration: 0.5 mM fatty acid
Method: (A) Plates of YNBG with and without supplement of 1 mM of oleic acid (C18:1) dissolved in ethanol. The plate without FA contained the same volume of ethanol only. (B) Plates of YNBG supplemented with 1 mM of palmitoleic (16:1^cisΔ9), linoleic (18:2^cisΔ9,12), α-linolenic (C18:3), docosahexaenoic (C22:6), ricinoleic (C18:1 OH), erucic (C22:1) and 0.5 mM of palmitic (C16:0) and stearic (C18:0) acids. The FAs were dissolved in ethanol at 0.5M or 0.25M and added to the YNBG prior to plating. (C) Plates supplemented with oleic, α-linolenic and docosahexaenoic acids at the final concentrations indicated. (D) Selection of yeast cells in medium with FA after transformation. H1246 cells were transformed with 1 μg of pYESBnDGAT1 (column 1), 1 μg of pYESLacZ (column 2) and 0.1 μg of pYESBnDGAT1 mixed with 0.9 μg of pYESLacZ (column 3). After transformation, yeast cells were recovered in liquid YNBD medium for 6 hours, inoculated in YNBG plates with or without supplement of 1 mM oleic acid and incubated at 30° C. for 6 days.

[2] = tested on: ACAT; conditions: ACAT1 vs ACAT2; cited from earlier work
[3] = tested in humans; cited from earlier work
[4] = tested on: S. cerevisiae strain H1246 (quadruple knock-out); test: Growth of knock-out yeast in liquid medium supplemented with oleic acid; conditions: growth measured for 72 hours
Method: Oleic acid, dissolved in ethanol at 0.5M, was supplemented to the cultures at the final concentrations indicated. The cultures were incubated at 30 °C, 250 rpm and the growth was monitored for 72 hours.
Three yeast strains (wild type, dga1 knock-out and quadruple knock-out) were transformed with yeast expression vector pYES2.1-TOPO (Invitrogen) containing a cDNA coding for DGAT1 from several oilseed plants (canola, flax or castor bean). The same vector containing the gene coding for the bacterial protein LacZ served as the negative control. Transformed yeast cells were cultivated in 50 mL of uracil drop-out medium supplemented with 2% glucose for 48 hours shaking at 30° C. and 250 rpm. The cells were washed twice with water and inoculated in liquid media supplemented with 2% galactose, 1% raffinose to induce the expression of the recombinant proteins, and different concentrations of free fatty acids (0 to 1000 μM of oleic acid). […] Cell growth was measured for a period of 72 hours.

CC/C=C\C/C=C\C/C=C\CCCCCCCC(=O)O [α-linolenic, α-linolenic acid]
suitability for selection [1]: suitable for selection
growth of DGAT1 and LacZ cultures [1]: inhibited the growth of both cultures

CCCCC/C=C\C/C=C\CCCCCCCC(=O)O [linoleic, linoleic acid]
suitability for selection [1]: suitable for selection
growth of DGAT1 and LacZ cultures [1]: inhibited the growth of both cultures

CC(C)c1cc(C(C)C)c(CC(=O)NS(=O)(=O)Oc2c(C(C)C)cccc2C(C)C)c(C(C)C)c1 [avasimibe]
selectivity among ACAT isoforms [2]: nonselective ACAT inhibitors
efficacy against atherosclerosis [3]: ineffective against atherosclerosis
harm [3]: probably harmful due to ACAT1 inhibition

CCCCCCCCCCCCCCCC(=O)O [palmitic, palmitic acid]
selectivity of the media at lowered concentration [1]: did not substantially improve the selectivity

CCCCCCCC/C=C\CCCCCCCCCCCC(=O)O [erucic, erucic acid]
selectivity of the media at lowered concentration [1]: did not substantially improve the selectivity

CCCCCCCC/C=C\CCCCCCCC(=O)O [oleic acid]
colony formation on solid medium ([1]; 1000 μM oleic acid, five days at 30° C., DGAT1 vs LacZ): only the cells expressing the recombinant DGAT1 formed visible colonies
concentration most effective in distinguishing strains with and without TAG synthase activity [4]: 1000 µM
lowest concentration at which the inhibitory effect on growth was observed ([4]; knock-out strains without recombinant DGAT1): 25 µM

CCCCCCCCCCCCCCCCCC(=O)O [stearic, stearic acid]
selectivity of the media at lowered concentration [1]: did not substantially improve the selectivity

CCCCCCCCN1CCc2c(C)c(CC(=O)O)c(C)c(NC(=O)C(C)(C)C)c21 [pactimibe]
selectivity among ACAT isoforms [2]: nonselective ACAT inhibitors
efficacy against atherosclerosis [3]: ineffective against atherosclerosis
harm [3]: probably harmful due to ACAT1 inhibition
